Test results: patent publication US10179914B2, “CDC25A inhibitor for the treatment of drug resistant cancer or for the prevention of tumor relapse” (INSERM (INSTITUT NATIONAL DE LA SANTÉ ET DE LA RECHERCHE …, priority 2014, dated 2019)

Experiments:
[1] = system: FLT3-wild type primary AML samples; test: Differentiation of FLT3 wild-type primary AML samples; format: cell-based, human; details: same conditions
Excerpt: (§1) Patient samples. Patient AML samples were obtained after informed consent in accordance with the Declaration of Helsinki and stored at the HIMIP collection. According to the French law, HIMIP collection has been declared to the Ministry of Higher Education and Research (DC 2008-307 collection 1) and obtained a transfer agreement (AC 2008-129) after approbation by ethical committees (Comité de Protection des Personnes Sud-Ouest et Outremer II and APHP ethical committee). Clinical and biological annotations of the samples have been declared to the CNIL (Comité National Informatique et Libertés i.e. Data processing and Liberties National Committee). Frozen cells were thawed in IMDM medium with 20% FBS and immediately processed for treatment. All patients were diagnosed at the Department of Hematology of Toulouse University Hospital.
Co-cultures. […]
Flow cytometry. Apoptotic cells were detected with Annexin V-FITC detection kit from BD Pharmingen (San Diego, Calif., USA) according to the manufacturer instructions. […] Data were collected on a LSRII or a LSRFortessa cytometer (BD Biosciences), and analyzed with FlowJo software. […]

[2] = system: primary AML cells expressing wild-type FLT3; test: Clonogenic assay, FLT3 wild-type primary AML cells; format: cell-based, human; details: 100 and 200 nM, day 7
Protocol: (c) Primary cells from patients were cultured in semi-solid medium to estimate their clonogenic potential as described in the Methods section, in the presence or the absence of IRC-083864 (100 and 200 nM). 6 FLT3-ITD positive (upper panel) and 4 FLT3-wild type (lower panel) AML primary samples were used for these experiments. Leukemic colonies were scored under an inverted microscope at day 7.
as §1
Clonogenic assay. […] Leukemic colonies were then scored under an inverted microscope.

[3] = system: KG1 cells (FLT3 wild type); test: Cell proliferation, trypan blue counting, KG1; format: cell-based, human
Protocol: (a) MV4-11 and MOLM-14 FLT3-ITD positive cells, KG1, HL-60 and TF-1 FLT3 wild type cells, and K562 FLT3 negative cells were cultured in the presence of the CDC25 inhibitor IRC-083864 (200 nM). Cells were harvested each day and counted after trypan blue coloration. The graph represents three independent experiments.
Cell lines and reagents. Human acute myeloid leukemia cell lines MOLM-14 (Matsuo Y et al, Leukemia 1997) (kindly provided by Martin Carroll, University of Pennsylvania, Philadelphia, Pa., USA) MV4-11, K562 (ACC-102 and ACC-10, DSMZ, Braunschweig, Germany) and FLT3-ITD-expressing murine BaF3 cells were cultured in RPMI 1640 medium (Gibco, Life Technologies, Carlsbad, Calif., USA) supplemented with 10% fetal bovine serum (Sigma, Saint Louis, Calif., USA). TF-1 (ATCC-CRL2003) cells were cultured in RPMI 1640 medium with 10% fetal bovine serum and GM-CSF 2 ng/ml. Concerning MOLM-14 cell line, the presence of a monoallelic 21 bp FLT3-ITD mutation and of an MLL-containing ins(11; 9)(q23;p22p23) were verified (Hematology laboratory of Toulouse University Hospital, Prof E. Delabesse and Dr I. Luquet). KG1 and HL-60 (ACC-14 and ACC-3, DSMZ) cell lines were grown in Iscove's Modified Dulbecco's Medium (IMDM, Gibco) plus 20% FBS. […]
siRNA. […] Twenty-four or forty-eight hours after transfection, cells were counted (trypan blue staining), and western blotting was performed.

[4] = system: HCT-116 tumor spheroids; details: by induction of p21 and apoptosis; cited from earlier work

SMILES: Cc1nc2c(s1)C(=O)C=C(NCCCN(C)CCCNC1=CC(=O)c3nc(-c4cc(F)ccc4F)oc3C1=O)C2=O [IRC-083864]
- differentiation of FLT3-wild type samples [1]: no evidence of differentiation
- clonogenic potential of primary cells expressing wild-type FLT3 [2]: not sensitive
- proliferation of KG1 ([3]; 200 nM): did not decrease
- proliferation of KG1 upon stimulation by FLT3 ligand ([3]; FLT3 ligand stimulation): had no effect
- growth of HCT-116 tumor spheroids [4]: inhibits the growth
